Source: US11311610B2, “Immune-modulating agents and uses therefor” (UNIVERSITY OF TECHNOLOGY SYDNEY, priority 2010, dated 2022)
Where a SMILES comes first, the peptide text is derived from it.

Key:
[1] = system: ATPase activity associated with lysosomal membranes (equivalent to vATPase activity); experiment: ATPase activity of enriched lysosomal membranes; assay type: biochemical, murine; conditions: lysosomal membranes from RAW264.7 macrophage lysates
Method: FIG. 17 is a graphical representation showing that FhHDM-1 P3 inhibits ATPase activity associated with lysosomal membranes in a concentration-dependent manner. A cellular fraction enriched for lysosomes was prepared by sequential centrifugation of RAW264.7 macrophage lysates. The lysosomal membranes were recovered and assayed (with or without HDM peptides) for ATPase activity using a commercially available kit.
FIG. 18 is a diagrammatic representation showing a sequence alignment of various synthetic HDM peptides. The amphipathic helix is shaded in grey as are the mutated residues in peptides nonHP and 2Pro. NonHP is a variant of FhHDM-1 P3 in which the hydrophobic face of the FhHDM-1 amphipathic helix was removed. 2Pro is a variant of FhHDM-1 P3 in which two prolines substitutions were incorporated to disrupt the alpha-helix. Cons_p3 is a consensus peptide corresponding to various FhHDM-1 homologs. All peptides in the alignment were tested for their ability to inhibit the ATPase activity associated with enriched lysosomal membranes (prepared from RAW macrophages). Those with inhibitory activity are shown in bold text.
A cellular fraction enriched for lysosomes was prepared by sequential centrifugation of RAW264.7 macrophage lysates. The lysosome pellet was extracted with water and the resulting lysosomal membranes were recovered and assayed (with or without HDM peptides) for ATPase activity using a commercially available kit.

[2] = system: RAW264.7 cells; experiment: Binding of FITC-conjugated LPS to RAW 264.7 cells (flow cytometry); assay type: cell-based, murine; conditions: 0.1-10 μg/mL, 20 min at 4° C.
Method: (§1) FIG. 9 is a graphical representation showing LPS neutralization by FhHDM-1. The ability of FhHDM-1 (Δ), FhHDM-1 p1 (●) or FhHDM-1 p3 (▪) to bind to LPS was investigated by (A) incubating a range of concentrations of proteins (0.02-2 μg/well) in an LPS-coated (100 ng/well) microtitre plate. Bound peptides were detected by ELISA using rabbit anti-FhHDM-1 as a primary antibody. (B) FhHDM-1 or derived peptides (0.1 μg) were incubated in the presence of LPS (0.05-5 μg/well) and bound peptides measured as described above. Binding of peptides to the LPS-immobilized plates was expressed as a percentage of that measured for 2 μg (for panel A) or 0.1 μg (for panel B) of FhHDM-1. Data are the means±SD from three separate experiments. (C) FhHDM-1 and FhHDM-1 p3 but not FhHDM-1 p1 reduced the interaction between LPS and LBP as effectively as LL-37. LPS-coated microtitre plates were incubated with 5 μg/well of LL-37, FhHDM-1 or derived peptides for 1 h prior to the addition of 10% human sera in PBS. Interaction of LBP with LPS was measured by ELISA using an anti-LBP primary antibody and expressed as a percentage of that detected for 10% sera in the absence of added peptides. Data are the mean±SD of three separate experiments. Statistical significance was calculated using the student t-test and represent a comparison to the binding of 10% sera to immobilized LPS. (D) Binding of FITC-conjugated LPS to RAW264.7 cells was inhibited by LL-37, FhHDM-1 and peptides. […] The binding of FITC-LPS was analyzed by flow cytometry. LPS binding was expressed as a percentage of the mean fluorescence obtained for the addition of FITC-LPS to cells in the absence of peptides. […] Two hours later, sera was collected and serum levels of TNF and (F) IL-10 measured by ELISA. (G) Peritoneal macrophages were isolated, cultured unstimulated in media overnight and then levels of TNF and (H) IL-10 in the culture measured by ELISA. […]
The effect of FhHDM-1 and derived peptides on the binding of FITC-LPS to CD14+ cells was determined by flow cytometry of the murine macrophage cell line RAW264.7. […]

[3] = system: LPS-induced inflammatory response; experiment: Endotoxin (LPS)-induced inflammation in mice, co-injection; assay type: in vivo, BALB/c mice
Method: FIG. 9 is a graphical representation showing LPS neutralization by FhHDM-1. The ability of FhHDM-1 (Δ), FhHDM-1 p1 (●) or FhHDM-1 p3 (▪) to bind to LPS was investigated by (A) incubating a range of concentrations of proteins (0.02-2 μg/well) in an LPS-coated (100 ng/well) microtitre plate. Bound peptides were detected by ELISA using rabbit anti-FhHDM-1 as a primary antibody. (B) FhHDM-1 or derived peptides (0.1 μg) were incubated in the presence of LPS (0.05-5 μg/well) and bound peptides measured as described above. Binding of peptides to the LPS-immobilized plates was expressed as a percentage of that measured for 2 μg (for panel A) or 0.1 μg (for panel B) of FhHDM-1. Data are the means±SD from three separate experiments. (C) FhHDM-1 and FhHDM-1 p3 but not FhHDM-1 p1 reduced the interaction between LPS and LBP as effectively as LL-37. LPS-coated microtitre plates were incubated with 5 μg/well of LL-37, FhHDM-1 or derived peptides for 1 h prior to the addition of 10% human sera in PBS. Interaction of LBP with LPS was measured by ELISA using an anti-LBP primary antibody and expressed as a percentage of that detected for 10% sera in the absence of added peptides. Data are the mean±SD of three separate experiments. Statistical significance was calculated using the student t-test and represent a comparison to the binding of 10% sera to immobilized LPS. (D) Binding of FITC-conjugated LPS to RAW264.7 cells was inhibited by LL-37, FhHDM-1 and peptides. RAW264.7 cells (5×10^5 cells/mL) were incubated with 1 μg/mL of FITC-conjugated LPS in the presence of increasing concentrations (0.1-10 μg/mL) of FhHDM-1, FhHDM-1 p1 and FhHDM-1 p3 and LL-37 in RPMI 1640 containing 10% FBS for 20 min at 4° C. The binding of FITC-LPS was analyzed by flow cytometry. LPS binding was expressed as a percentage of the mean fluorescence obtained for the addition of FITC-LPS to cells in the absence of peptides. Data are the mean±SD of two independent experiments. (E) FhHDM-1 and FhHDM-1 p3 both suppress the inflammatory response induced by LPS in mice. BALB/c mice were intra-peritoneally injected with 1 μg of LPS alone or combined with 1 μg of FhHDM-1, FhHDM-1 p3 or LL-37. Two hours later, sera was collected and serum levels of TNF and (F) IL-10 measured by ELISA. (G) Peritoneal macrophages were isolated, cultured unstimulated in media overnight and then levels of TNF and (H) IL-10 in the culture measured by ELISA. Data are the mean±SD of six mice in each group. Statistical significance represents a comparison to the levels of cytokines secreted by mice given LPS only.
Human Defense peptides protect against harmful inflammatory responses by preventing activation of macrophages by classical TLR ligands such as LPS (Scott et al. 2002, J. Immunol. 169, 3883-3891). Here, the inventors employed a murine model to examine whether FhHDM-1 and derived peptides can suppress LPS-induced Th1 inflammation. BALB/c mice were injected intra-peritoneally with 1 μg of LPS alone or LPS combined with 1 μg of FhHDM-1, FhHDM-1 p3 or LL-37. Two hours later, sera was collected and serum levels of the pro-inflammatory mediators TNF and IL-10 were measured by ELISA. […] Because macrophages are the main source of pro-inflammatory mediators in this murine model of inflammation, peritoneal macrophages were isolated from treated mice (LPS±FhHDM-1, peptides or LL-37 as described above), cultured unstimulated in media overnight and then levels of TNF and IL-10 in the culture media were measured by ELISA.
Six week-old female BALB/c mice were purchased from ARC (Perth, Australia) and maintained according to the guidelines of the University of Technology Sydney Animal Care and Ethics committee. For the analysis for endotoxin-induced inflammation, mice were intra-peritoneally injected with 1 μg of E. coli LPS (serotype 111:B4; Sigma) either with or without 1 μg FhHDM-1 or derived peptides. After 2 h mice were sacrificed by cervical dislocation. […]

[4] = system: interaction of LPS with LPS-binding protein (LBP); experiment: Assay for the interaction of LPS with LBP (ELISA); design: species or system mouse; conditions: 5 μg/well, 1 h before 10% sera; ELISA with anti-LBP
Method: as §1
The ability of FhHDM-1 and derived peptides to block the interaction of LPS with LPB was assessed by ELISA using an anti-LBP primary antibody. […]

[5] = established T1D, early randomized trials; cited from earlier work
[6] = system: RAW macrophages; experiment: ATP induced macrophage cell death (LDH release); assay type: cell-based, murine; conditions: 20 μg/mL pre-treatment 1 h, then ATP 5 mM 2 h
Method: FIG. 16 is a graphical representation showing that FhHDM-1 P3 prevents ATP induced cell death in RAW macrophages. RAW macrophages were pretreated with either FhHDM-1 (20 μg/mL) or FhHDM-1 p3 (20 μg/mL) for 1 h, then washed and cultured in the presence of ATP (5 mM) for 2 h. Cell death (% cytotoxicity) was quantified according to the amount of LDH released by the cells into culture media.
Raw macrophages were pre-treated with either HDM (20 μg/mL) or FhHDM-1 P3 (20 μg/mL) for 1 h, washed and then cultured in the presence of ATP (5 mM) for 2 h. The culture supernatants were collected and assayed for LDH activity with an LDH release kit. The amount of LDH release by cells treated with ATP only was used to represent 100% cytotoxicity.

[7] = BALB/c mice, 1 μg LPS mixed with 1 μg i.p., 2 h
[8] = macrophages from treated mice, cultured unstimulated overnight

In the case of “HDMp2: SEQ ID NO:122, 27 aa, comprising a shorter amphipathic helix than FhHDM-1 peptide 3 (NLGEKITEVITILLNRLTDRLEKYAGN; FhHDM-1 peptide 2)”, the “ATPase activity associated with lysosomal membranes” value [1] is reported as “inhibitory”.

In the case of LL-37 [reference compound], the “binding of FITC-LPS to RAW264.7 macrophages” value [2] is reported as “most strongly inhibited”, the “serum levels of IL-10” value [3, 7] is reported as “significant reduction” and the “serum levels of TNF” value [3, 7] is reported as “significant reduction”. The “LPS-induced secretion of IL-10 from peritoneal macrophages” value [3, 8] was “significantly inhibited”, the “TNF secreted from peritoneal macrophages” value [3, 8] was “did not significantly reduce” and the “interaction between LPS and LBP” value [4] was “significantly reduced”.

For `Cn1cnc([N+](=O)[O-])c1Sc1ncnc2nc[nH]c12` [azathioprine], the “treated patients becoming independent of insulin therapy” value [5] is given as “approximately 50%”.

In the case of `CC[C@H](C)[C@H](NC(=O)[C@H](CCCCN)NC(=O)[C@H](CCC(=O)O)NC(=O)CNC(=O)[C@H](CC(C)C)NC(=O)[C@H](CC(N)=O)NC(=O)[C@H](CC(=O)O)NC(=O)[C@H](CCCCN)NC(=O)[C@H](C)NC(=O)[C@H](CC(C)C)NC(=O)[C@H](Cc1ccc(O)cc1)NC(=O)[C@H](C)NC(=O)[C@H](CCSC)NC(=O)[C@H](C)N)C(=O)N[C@H](C(=O)N[C@@H](CCC(=O)O)C(=O)N[C@H](C(=O)N[C@H](C(=O)N[C@H](C(=O)N[C@H](C(=O)N[C@@H](CC(C)C)C(=O)N[C@@H](CC(C)C)C(=O)N[C@@H](CC(N)=O)C(=O)N[C@@H](CCCNC(=N)N)C(=O)N[C@@H](CC(C)C)C(=O)N[C@H](C(=O)N[C@@H](CC(=O)O)C(=O)N[C@@H](CCCNC(=N)N)C(=O)N[C@@H](CC(C)C)C(=O)N[C@@H](CCC(=O)O)C(=O)N[C@@H](CCCCN)C(=O)N[C@@H](Cc1ccc(O)cc1)C(=O)N[C@@H](C)C(=O)NCC(=O)O)[C@@H](C)O)[C@@H](C)CC)[C@@H](C)O)[C@@H](C)CC)C(C)C)[C@@H](C)O` [FhHDM-1 p3] (H-AMAYLAKDNLGEKITEVITILLNRLTDRLEKYAG-OH), the “LDH release induced by ATP (cytotoxicity of ATP)” value [6] is reported as “inhibited LDH release”.
